Key:
full-length human BTK = target: T1, full-length human BTK (Homo sapiens, UniProt Q06187); assay: BTK IC50 Enzyme Assay (Assay A), microfluidic off-chip mobility shift kinase assay; type: biochemical; settings: kinKDR peptide substrate, 90 min at 27° C.
T1 construct: 2.5× stocks of full-length human BTK (08-080) from CarnaBio USA, Inc; purchased CarnaBio USA, Inc., Natick, Mass; 08-080
Method: BTK IC50 Enzyme Assay (Assay A)
The following describes a microfluidic, off-chip mobility shift kinase assay used to measure inherent potency of compounds against BTK enzyme.
2.5× stocks of full-length human BTK (08-080) from CarnaBio USA, Inc., Natick, Mass., 1.6×ATP and appropriate kinKDR peptide substrate (FITC-AHA-EEPLYWSFPAKKK10 NH2) were prepared in kinase reaction buffer consisting of 25 mM MgCl2, 0.015% Brij-35 (30%), 100 mM Hepes, pH 7.5, and 10 mM DTT.
5 uL of enzyme buffer and 7.5 uL of ATP/kinKDR peptide substrate mix were added to Matrix (#115304) 384-well, sterile, polypropylene plates (Thermo Fisher Scientific, 15 Hudson, N.H.) with 125 nL of serially diluted compounds prepared in 100% DMSO, and incubated for 90 min. at 27° C. Following the incubation period, reactions were stopped by adding 60 uL stop buffer consisting of 100 mM Hepes, pH 7.5, 0.015% Brij-35 (30%), 0.277% Coating Reagent #3 (Caliper Life Sciences, Mountain View, Calif.), 5% DMSO. Stopped reactions were monitored at −2 PSI, −3000 V/−700 V in a LabChip 3000 plate 20 reader from Caliper Life Sciences, a PerkinElmer Company (Hopkinton, Mass.), and the activity was measured by off-chip mobility shift assay measuring the charge/mass difference between substrate and product resulting from peptide phosphorilation. IC50 and efficacy were determined by plotting log [Inhibitor] vs. % Activity in GeneData Screener (Basel, Switzerland).

[1] = test system: anti-IgM-induced expression of CD69 in freshly isolated human peripheral blood mononuclear cells (PBMCs); assay: Assay B: inhibition of anti-IgM-induced expression of CD69 on CD19 positive cells (B cells) in human PBMCs; type: cell-based; settings: PBMC, 1 h pre-treatment, overnight anti-human IgM stimulation, CD69 on CD19 positive cells by flow cytometry, read-out: Assay B (mol/L (M))
Method: Btk is critical for mediating the signalling of B cell antigen receptor (BCR) after anti-IgM stimulation. Based on this principle, a functional cell-based assay was established to determine the potency of compounds at inhibiting anti-IgM-induced expression of CD69, a downstream BCR signalling event, in freshly isolated human peripheral blood mononuclear cells (PBMCs). In the assay, a 90 μl PBMC suspension containing 2.5×10^5 cells was pre-treated with 10 μl of test compound at various concentrations for an hour, and then incubated overnight (approximately 16-18 hours) with 5 μl 420 μg/ml affiniPure F(ab′)2 fragment goat anti-human IgM Fc fragment per well (Dianova, Cat. No.: 109-006-129). After the incubation, the cells were washed and immunostained with an APC labelled mouse anti-human CD69 (BD Biosciences; clone: FN50), a PerCP-Cy5.5 labelled mouse anti-human CD19 (BD Biosciences; clone: SJ25C1) and a FITC-labelled mouse anti-human CD3 (BD Biosciences; clone: HIT3a), and fixed for flow cytometric analysis of CD69 expression on CD19 positive cells (B cells). The percentage of CD69 expressing CD19 positive cells was plotted against the concentrations of test compounds to obtain a concentration response curve, and calculate an IC50 value as a measure of the potency of test compounds in the assay.

T1 sequence (Q06187 whole entry): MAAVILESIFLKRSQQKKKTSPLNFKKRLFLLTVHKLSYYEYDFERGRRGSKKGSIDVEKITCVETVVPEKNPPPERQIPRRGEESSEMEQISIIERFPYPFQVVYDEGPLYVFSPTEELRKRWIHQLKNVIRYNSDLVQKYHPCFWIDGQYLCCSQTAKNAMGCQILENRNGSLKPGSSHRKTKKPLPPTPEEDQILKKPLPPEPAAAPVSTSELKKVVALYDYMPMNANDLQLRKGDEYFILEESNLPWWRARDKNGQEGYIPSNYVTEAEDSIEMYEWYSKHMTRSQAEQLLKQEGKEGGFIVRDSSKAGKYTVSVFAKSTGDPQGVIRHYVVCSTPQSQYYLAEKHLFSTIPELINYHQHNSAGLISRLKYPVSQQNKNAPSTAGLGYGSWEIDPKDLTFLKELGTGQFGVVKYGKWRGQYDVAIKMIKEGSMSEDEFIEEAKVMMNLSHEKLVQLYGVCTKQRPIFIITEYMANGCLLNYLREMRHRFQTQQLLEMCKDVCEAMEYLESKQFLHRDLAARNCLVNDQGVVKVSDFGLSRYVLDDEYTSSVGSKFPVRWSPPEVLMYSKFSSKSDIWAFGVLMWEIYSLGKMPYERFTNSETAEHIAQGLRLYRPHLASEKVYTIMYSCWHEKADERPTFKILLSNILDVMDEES

Row | SMILES | IC50 (full-length human BTK) | IC50 [1]
1 | C=CC(=O)N1CC(n2ccc3ncnc(Oc4ccc(Oc5ccccc5)cc4)c32)C1 [Compound 3, 1-(3-(4-(4-phenoxyphenoxy)-5H-pyrrolo[3,2-d]pyrimidin-5-yl)azetidin-1-yl)prop-2-en-1-one] | < 0.1 µM | < 1e-07 M
2 | C=CC(=O)N[C@H]1C[C@@H](n2ccc3ncnc(Oc4ccc(Oc5ccccc5)cc4)c32)C1 [Compound 10, N-(cis-3-(4-(4-phenoxyphenoxy)-5H-pyrrolo[3,2-d]pyrimidin-5-yl)cyclobutyl)acrylamide] | < 0.1 µM | 1e-07 to 1e-06 M
3 | CN(C)C/C=C/C(=O)N1CC(n2ccc3ncc(-c4ccc(Oc5ccccc5)cc4)cc32)C1 [Compound 13, (E)-4-(dimethylamino)-1-(3-(6-(4-phenoxyphenyl)-1H-pyrrolo[3,2-b]pyridin-1-yl)azetidin-1-yl)but-2-en-1-one] | < 0.1 µM | 1e-07 to 1e-06 M
4 | O=C(CCCCCNc1ccc([N+](=O)[O-])c2nonc12)NCCN1CCN(C/C=C/C(=O)N2CC(n3ccc4ncnc(Oc5ccc(Oc6ccccc6)cc5)c43)C2)CC1 [Compound 31, (E)-6-((7-nitrobenzo[c][1,2,5]oxadiazol-4-yl)amino)-N-(2-(4-(4-oxo-4-(3-(4-(4-phenoxyphenoxy)-5H-pyrrolo[3,2-d]pyrimidin-5-yl)azetidin-1-yl)but-2-en-1-yl)piperazin-1-yl)ethyl)hexanamide] | < 0.1 µM | 1e-06 to 5e-06 M
5 | N#CN1CCC(n2ccc3ncnc(Oc4ccc(Oc5ccccc5)cc4)c32)C1 (stereo not shown) [Compound 60, 3-[4-(4-phenoxyphenoxy)-5H-pyrrolo[3,2-d]pyrimidin-5-yl]pyrrolidine-1-carbonitrile] | < 0.1 µM | 1e-07 to 1e-06 M
6 | N#CN1CC(Cn2ccc3ncnc(Oc4ccc(Oc5ccccc5)cc4)c32)C1 [Compound 66, 3-[[4-(4-phenoxyphenoxy)-5H-pyrrolo[3,2-d]pyrimidin-5-yl]methyl]azetidine-1-carbonitrile] | 1 to 5 µM | 
7 | CN(C#N)[C@H]1C[C@H](n2ccc3ncnc(Oc4ccc(Oc5ccccc5)cc4)c32)C1 [Compound 67, (1R,3R)—N-cyano-N-methyl-3-[4-(4-phenoxyphenoxy)-5H-pyrrolo[3,2-d]pyrimidin-5-yl]cyclobutan-1-amine] | 0.1 to 1 µM | 
8 | N#CN1CC(n2ccc3ncnc(Oc4ccc(Oc5ccccc5)cc4)c32)C1 [Compound 68, 3-[4-(4-phenoxyphenoxy)-5H-pyrrolo[3,2-d]pyrimidin-5-yl]azetidine-1-carbonitrile] | 1 to 5 µM | 
9 | N#CN1CC2(CC(n3ccc4ncnc(Oc5ccc(Oc6ccccc6)cc5)c43)C2)C1 [Compound 69, 6-[4-(4-phenoxyphenoxy)-5H-pyrrolo[3,2-d]pyrimidin-5-yl]-2-azaspiro[3.3]heptane-2-carbonitrile] | 1 to 5 µM | 
10 | CN(C#N)[C@H]1CC[C@H](n2ccc3ncnc(Oc4ccc(Oc5ccccc5)cc4)c32)CC1 [Compound 70, (1R,4R)—N-cyano-N-methyl-4-[4-(4-phenoxyphenoxy)-5H-pyrrolo[3,2-d]pyrimidin-5-yl]cyclohexan-1-amine] | 0.1 to 1 µM | 
11 | N#CN1CC[C@@H](n2ccc3ncnc(Oc4ccc(Oc5ccccc5)cc4)c32)C1 [Compound 71, (3R)-3-[4-(4-phenoxyphenoxy)-5H-pyrrolo[3,2-d]pyrimidin-5-yl]pyrrolidine-1-carbonitrile] | > 5 µM | 
12 | N#CN1CC[C@H](n2ccc3ncnc(Oc4ccc(Oc5ccccc5)cc4)c32)C1 [Compound 72, (3S)-3-[4-(4-phenoxyphenoxy)-5H-pyrrolo[3,2-d]pyrimidin-5-yl]pyrrolidine-1-carbonitrile] | < 0.1 µM | 1e-07 to 1e-06 M
13 | NCCOCCOCCOCCOCCC(=O)NCCN1CCN(C/C=C/C(=O)N2CCC(n3ccc4ncnc(Oc5ccc(Oc6ccccc6)cc5)c43)CC2)CC1 [Compound 73, (E)-1-amino-N-(2-(4-(4-oxo-4-(4-(4-(4-phenoxyphenoxy)-5H-pyrrolo[3,2-d]pyrimidin-5-yl)piperidin-1-yl)but-2-en-1-yl)piperazin-1-yl)ethyl)-3,6,9,12-tetraoxapentadecan-15-amide] | < 0.1 µM | 
14 | CC1=CC(C)=[N+]2C1=C(c1ccc(NC(=S)NCCOCCOCCOCCOCCC(=O)NCCN3CCN(C/C=C/C(=O)N4CCC(n5ccc6ncnc(Oc7ccc(Oc8ccccc8)cc7)c65)CC4)CC3)cc1)c1c(C)cc(C)n1[B-]2(F)F [Compound 74, (E)-1-((4-(5,5-difluoro-1,3,7,9-tetramethyl-5H-414,514-dipyrrolo[1,2-c:2′,1′-f][1,3,2]diazaborinin-10-yl)phenyl)amino)-N-(2-(4-(4-oxo-4-(4-(4-(4-phenoxyphenoxy)-5H-pyrrolo[3,2-d]pyrimidin-5-yl)piperidin-1-yl)but-2-en-1-yl)piperazin-1-yl)ethyl)-1-thioxo-5,8,11,14-tetraoxa-2-azaheptadecan-17-amide] | 0.1 to 1 µM | 
15 | N#CN1CC[C@@H](n2ccc3ncnc(Oc4ccc(Oc5ccc(F)cc5F)cc4)c32)C1 [Compound 75] | > 5 µM | 
16 | N#CN1CC[C@H](n2ccc3ncnc(Oc4ccc(Oc5ccc(F)cc5F)cc4)c32)C1 [Compound 76] | 0.1 to 1 µM | 

Reference: patent publication US9738648B2, “Pyridines, pyrimidines, and pyrazines, as BTK inhibitors and uses thereof” (Merck Patent GmbH, priority 2013, dated 2017)
